Experiment [1] has as its system human lung cancer strain NCI-H441. The format is cell-based. On the procedure:
A test compound was dispensed into a U-bottom 384-well plate as 40 nL serially diluted dimethyl sulfoxide solutions using a liquid handler Echo (LABCYTE). […] This cell suspension was dispensed in an amount of 40 µL per well into a plate containing the test compound, and cultured at 37°C in a 5% carbon dioxide gas incubator. Four days later, 20 µL of CellTiter-Glo (registered trademark) (Promega) was added to each well and […] was measured. […]

The target in experiment [2] is GDP-bound NRAS wild-type protein (Homo sapiens, UniProt P01111). Description: Binding to NRAS by surface plasmon resonance (SPR), KD and KD ratio to KRAS. The settings on record: ratio of KD for GDP-bound NRAS wild-type protein to KD for KRAS. On the procedure: (§1) Surface plasmon resonance was used to analyze the binding affinity of compounds for KRAS, NRAS, and HRAS. The apparatus used was Biacore 8K, 8K+, or T200 (GE Healthcare), and the running buffer used was HBS (10 mM HEPES-NaOH, 150 mM NaCl, pH 7.4) containing 1 mM DTT, 10 mM MgCl2, 0.01% Tween 20, 10 µM GDP, and 4% DMSO.
(§2) Biotinylated Avi-tag fusion KRAS, NRAS, and HRAS proteins were expressed in E. coli BL21 (DE3) strains, and after cells were homogenized, they were purified using Streptavidin Mutein Matrix and Superdex 75. After purification, GDP-loaded KRAS, NRAS, and HRAS proteins were immobilized on the surface of Sensor Chip CAP (Cytiva) coated with Biotin CAPture Reagent in an immobilization amount of about 100 to 300 RU. Binding of each compound was evaluated by the Single Cycle Kinetics method, and a running buffer or a compound solution was added to the RAS protein non-immobilized surface and the immobilized surface to obtain a binding response. The flow rate was set to 100 µL/min, and in the compound-adding cycle, compound solutions having different concentrations were intermittently added for 75 seconds each, starting from a low concentration. […] In the blank cycle, a running buffer was intermittently added and not the compound solution. The Biotin CAPture Reagent and RAS proteins were immobilized for each cycle, and at the end of each cycle, the sensor chip was regenerated by the regeneration solution appended to the Biotin CAPture Kit (Cytiva). Measurement was carried out at 30°C.
(§3) The resulting sensorgram was subjected to curve fitting based on a 1:1 binding model on Biacore Insight Evaluation Software or T200 Evaluation Software, and thereby the dissociation constant KD of each compound with respect to KRAS, NRAS, and HRAS was determined. […] Blank indicates a compound from which the KD value with respect to NRAS or HRAS was not obtained.

The target in the next experiment is HRAS wild-type protein (Homo sapiens, UniProt P01112). As to the kind of experiment: Binding to HRAS by surface plasmon resonance (SPR), KD and KD ratio to KRAS. The settings on record: ratio of KD for HRAS wild-type protein to KD for KRAS. On the procedure: as §1, §2, §3

*1 amine or outer side, *2 acyl side, *3 side chain or, on linkers, in order; H or OH if unused. Where a SMILES comes first, the peptide text is derived from it. Bridges are numbered along the chain shown (N, C = ends). [ ]: non-standard residue; d: D form. The star is where a group is joined. hPhe(3-Cl-4-CF3) = N[C@@H](CCc1ccc(C(F)(F)F)c(Cl)c1)C(=O)O; NPrPhe(4-CF3) = CCCN[C@@H](Cc1ccc(C(F)(F)F)cc1)C(=O)O; X50 = C=CCN([C@@H](Cc1ccc(C)cc1)C(=O)[*:2])[*:1]; NMeGly(cPent) = CN[C@H](C(=O)O)C1CCCC1; Gly(cPent) = N[C@H](C(=O)O)C1CCCC1; NMeD = CN[C@@H](CC(=O)O)C(=O)O; NMeL = CN[C@@H](CC(C)C)C(=O)O; Morpholide = C1CN(*)CCO1; NMeA = CN[C@@H](C)C(=O)O; Ac5c = NC1(C(=O)O)CCCC1; Aze = O=C(O)[C@@H]1CCN1; Sar = CNCC(=O)O

Chain of GDP-bound NRAS wild-type protein (P01111 whole entry, the tested form may be a part): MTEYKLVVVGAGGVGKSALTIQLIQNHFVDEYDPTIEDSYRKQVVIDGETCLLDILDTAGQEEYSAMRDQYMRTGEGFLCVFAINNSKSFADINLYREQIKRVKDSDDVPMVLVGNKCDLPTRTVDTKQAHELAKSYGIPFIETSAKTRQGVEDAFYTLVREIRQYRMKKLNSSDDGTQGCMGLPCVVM
Chain of HRAS wild-type protein (P01112 whole entry): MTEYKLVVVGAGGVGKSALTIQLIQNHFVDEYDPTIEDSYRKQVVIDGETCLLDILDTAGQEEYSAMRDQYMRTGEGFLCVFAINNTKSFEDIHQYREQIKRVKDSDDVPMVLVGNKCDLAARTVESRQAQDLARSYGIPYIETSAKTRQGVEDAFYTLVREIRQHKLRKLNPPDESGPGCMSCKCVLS

As to `CCCN1C(=O)CN(C)C(=O)CN(C)C(=O)[C@H]([C@@H](C)CC)NC(=O)[C@H](CC(C)C)N(C)C(=O)C[C@@H](C(=O)N2CCOCC2)N(C)C(=O)[C@H](C2CCCC2)N(C)C(=O)C2(CCCC2)NC(=O)[C@H](C)NC(=O)[C@H](CCc2ccc(C(F)(F)F)c(Cl)c2)NC(=O)CN(C)C(=O)[C@@H]1Cc1ccc(C(F)(F)F)cc1` [PP1914] ([NMeL]I[Sar][Sar][NPrPhe(4-CF3)][Sar][hPhe(3-Cl-4-CF3)]A[Ac5c][NMeGly(cPent)][NMeD]-Morpholide; lactam N-11), the IC50 (usually the midpoint of a concentration-inhibition curve) in experiment [1] turned out to be 39.7 nM.
For `CCO[C@@H]1C[C@H]2C(=O)NC3(CC(C)(C)C3)C(=O)N(C)[C@@H](C3CCCC3)C(=O)N(C)[C@H](C(=O)N3CCCCC3)CC(=O)N(C)[C@H]3CCCCc4ccc(cc4)C[C@@H](C(=O)N(C)CC(=O)N[C@@H](CCc4ccc(C(F)(F)F)c(OC)c4)C(=O)N2C1)N1CC/C=C\C[C@@H](C1=O)N(C)C(=O)CN(C)C(=O)[C@H]([C@@H](C)CC)NC3=O` [PP3093], in experiment [2], the “NRAS /KRAS” value was “A (a compound having 10 or more and less than 20 is denoted as A)”. On HRAS wild-type protein, the “HRAS /KRAS” value is “A (a compound having 10 or more and less than 20 is denoted as A)”.
For the molecule `CCC[C@H]1C(=O)N[C@@H]([C@@H](C)CC)C(=O)N(C2CC2)CC(=O)N(C)[C@H]2C/C=C\CCN(C2=O)[C@@H](Cc2ccc(C)cc2)C(=O)N(C)CC(=O)N[C@@H](CCc2ccc(C(F)(F)F)c(C3CC3)c2)C(=O)N2C[C@H](OCC)C[C@H]2C(=O)NC2(CC(C)(C)C2)C(=O)N(C)[C@@H](C2CCCC2)C(=O)N(C)[C@H](C(=O)N(C)C)CC(=O)N1C` [PP2881], the “NRAS /KRAS” value in experiment [2] is “A (a compound having 10 or more and less than 20 is denoted as A)”. In addition, the “HRAS /KRAS” value at HRAS wild-type protein is “A (a compound having 10 or more and less than 20 is denoted as A)”.
Turning to `CC[C@H](C)[C@@H]1NC(=O)[C@H](CC(C)C)N(C)C(=O)CSC[C@H](C(=O)N(C)C)N(C)C(=O)[C@H](C2CCCC2)N(C)C(=O)C2(CCCC2)NC(=O)[C@@H]2CCCN2C(=O)[C@H](CCc2cc(F)c(C(F)(F)F)c(F)c2)NC(=O)CN(C)C(=O)[C@H](Cc2ccc(C(F)(F)F)cc2)N2CC/C=C\C[C@@H](C2=O)N(C)C(=O)CN(C)C1=O` [PP3109], 3420 nM corresponded to half-maximal inhibition in experiment [1] (IC50).
Regarding `CC[C@H](C)[C@@H]1NC(=O)[C@H](CC)N(C)C(=O)C[C@@H](C(=O)N(C)CC)N(C)C(=O)[C@H](C2CCCC2)N(C)C(=O)C2(CC(C)(C)C2)NC(=O)[C@@H]2C[C@@H](C)CN2C(=O)[C@H](CCc2cc(F)c(C(F)(F)F)c(F)c2)NC(=O)CN(C)C(=O)[C@H](Cc2ccc(C)cc2)N2CC/C=C\C[C@@H](C2=O)N(C)C(=O)CN(C)C1=O` [PP1884], in experiment [1], the concentration for half-maximal inhibition (IC50) turned out to be 17.3 nM.
Still for that read-out and setting: the value for `CCCN1C(=O)CN(C)C(=O)CN(C)C(=O)[C@H](C2CCCC2)NC(=O)[C@H](CC(C)C)N(C)C(=O)C[C@@H](C(=O)N2CCOCC2)N(C)C(=O)[C@H](C2CCCC2)N(C)C(=O)C2(CCCC2)NC(=O)[C@@H]2CCCN2C(=O)[C@H](CCc2ccc(C(F)(F)F)c(Cl)c2)NC(=O)CN(C)C(=O)[C@@H]1Cc1ccc(C(F)(F)F)cc1` [PP0251] ([NMeL][Gly(cPent)][Sar][Sar][NPrPhe(4-CF3)][Sar][hPhe(3-Cl-4-CF3)]P[Ac5c][NMeGly(cPent)][NMeD]-Morpholide; lactam N-11) was 8.4 nM.
With `C=CCN1C(=O)[C@@H]2CCN2C(=O)[C@H](C)N(C)C(=O)[C@H]([C@@H](C)CC)NC(=O)[C@H](CC(C)C)N(C)C(=O)C[C@@H](C(=O)N2CCOCC2)N(C)C(=O)[C@H](C2CCCC2)N(C)C(=O)C2(CCCC2)NC(=O)[C@@H]2CCCN2C(=O)[C@H](CCc2ccc(C(F)(F)F)c(Cl)c2)NC(=O)CN(C)C(=O)[C@@H]1Cc1ccc(C)cc1` [PP0088] ([NMeL]I[NMeA][Aze][X50][Sar][hPhe(3-Cl-4-CF3)]P[Ac5c][NMeGly(cPent)][NMeD]-Morpholide; lactam N-11), the concentration for half-maximal inhibition (IC50) in experiment [1] worked out at 4.1 nM.
On the same count and under the same terms, the value for `CCCN(C)C(=O)[C@@H]1CC(=O)N(C)[C@@H](CCOC)C(=O)N[C@@H]([C@@H](C)CC)C(=O)N(C)CC(=O)N(C)[C@H]2C/C=C\CCN(C2=O)[C@@H](Cc2ccc(C(F)(F)F)cc2)C(=O)N(C)CC(=O)N[C@@H](CCc2cc(F)c(C(F)(F)F)c(F)c2)C(=O)N2C[C@H](OCC)C[C@H]2C(=O)NC2(CC(C)(C)C2)C(=O)N(C)[C@@H](C2CCCC2)C(=O)N1C` [PP2033] was 11.8 nM; that for `CC[C@H](C)[C@@H]1NC(=O)[C@H](CC2CC2)N(C)C(=O)C[C@@H](C(=O)N(C)CC)N(C)C(=O)[C@H](C2CCCC2)N(C)C(=O)C2(CCC2)NC(=O)[C@@H]2C[C@H](C)CN2C(=O)[C@H](CCc2ccc(C(F)(F)F)c(OC)c2)NC(=O)CN(C)C(=O)[C@H](Cc2ccc(C)cc2)N2CC/C=C\C[C@@H](C2=O)N(C)C(=O)CN(C)C1=O` [PP1897] was 22.6 nM.
